The record followed here is patent US11560380B2, “Substituted naphthalene diimides and their use” (UCL Business Ltd, priority 2019, dated 2023).

Where two headings read alike, the source gives them in different places.

The nature of data set [1]: Aqueous solubility of salt. The data set is classed as physicochemical. The settings on record: water; HCl/formate salt.
The nature of data set [2]: Stability in saline at 0° C. The format is physicochemical.
The nature of data set [3]: Mouse microsomal stability. The format is in vitro ADME. Conditions: mouse microsomes; read-out: t1/2 mouse microsomal stability.
Data set [4] in a line: Plasma protein binding in vitro. The format is in vitro ADME.
Data set [5] is described as follows: In vitro blood/plasma partitioning. The data set is classed as in vitro ADME. Conditions: blood and plasma.
The next data set relates to GQ. The experiment in a line: FRET melting with GQ. The format is binding.
In the next data set the test system is MIA-PACA2. The data set can be described thus: 96 hr SRB cell growth inhibition, MIA-PACA2. The format is cell-based. The settings on record: for IC50: Homo sapiens, MIA PaCa-2, MIA-PACA2, 96 hr SRB.
Another data set concerns PANC-1. The experiment in a line: 96 hr SRB cell growth inhibition, PANC-1. The format is cell-based. Conditions: Homo sapiens; PANC-1, 96 hr SRB.
The subject of another data set is CAPAN-1. The experiment in a line: 96 hr SRB cell growth inhibition, CAPAN-1. The data set is classed as cell-based. The settings on record: Homo sapiens; CAPAN-1, 96 hr SRB.
A further data set has as its system BX-PC3. The experiment in a line: 96 hr SRB cell growth inhibition, BX-PC3. The format is cell-based. The settings on record: Homo sapiens, BXPC-3; BX-PC3, 96 hr SRB.
In another data set the test system is MIA-PACA2^gemR. The experiment in a line: 96 hr SRB cell growth inhibition, MIA-PACA2 gemR. The settings on record: Homo sapiens, MIA PaCa-2. The format is cell-based.
The test system of the next data set is MIA-PACA2 tumours. The experiment in a line: In vivo xenograft efficacy study, MIA-PACA2 model. The settings on record: for tumours not showing complete regression, versus vehicle control: minority of tumours in the group; for complete regression in tumour volume at the end of the dosing period: 1 mg/kg IV, 28 days. As for the experimental part: Mice aged 5-7 weeks weighing approximately 25-32 g were implanted for the study and purchased from Charles River. The pancreatic tumour cell implantation procedure involved MIA-PACA2 cells (1×10^7 in Matrigel) being implanted subcutaneously using a 22-gauge needle onto the rear flank of the mice. Parameters evaluated include: tumour size and animal bodyweight. Tumour volume was measured three times weekly and bodyweight at least 3 times weekly. Allocation to treatment groups was done randomly when tumours reached approximately 50 mm^3 for animals in the efficacy study. […] Each group comprised 8 animals. All protocols used in this study were approved by the appropriate Animal Welfare and Ethical Review Board, and all procedures were carried out under the guidelines of the UK Animal (Scientific Procedures) Act 1986.
The data shown is mean±SD n=8 up to day 23 and n=4 to the end of the study. […] The starting tumour volumes were […]. Example 1 was active in both of the dosage regimens examined, 1× weekly and 2× weekly, both at a 1 mg/kg dose. Both had ⅝ complete regression in tumour volume at the end of the dosing period.

For the next data set, the system named is PC-3. The experiment in a line: 72 hr XTT cell viability assay, PC-3. The data set is classed as cell-based. Conditions: Homo sapiens; PC-3, 72 hr XTT; read-out: IC50 cell growth inhibition. An excerpt: (§1) The CyQUANT XTT Cell Viability Assay (Invitrogen) is a complete, optimized assay that generates a consistent colorimetric detection of viable mammalian cells. The assay kit consists of two reagents, XTT Reagent (2,3-bis-(2-methoxy-4-nitro-5-sulfophenyl)-2H-tetrazolium-5-carboxanilide) and Electron Coupling Reagent. XTT Reagent is used to assess cell viability as a function of cellular redox potential, and the electron coupling reagent improves the dynamic range of the assay. The kit was used as per the manufacturers' instructions.

For another data set, the system named is DU145. The data set can be described thus: 72 hr XTT cell viability assay, DU145. The settings on record: Homo sapiens, DU-145; DU145, 72 hr XTT; read-out: IC50 cell growth inhibition. The format is cell-based.
Description: as §1
In general terms: Formazan colour is commonly taken as a measure of viable cells.

The test system of a further data set is LNCaP. The data set can be described thus: 72 hr XTT cell viability assay, LNCaP. Conditions: Homo sapiens, read-out: IC50 cell growth inhibition. The format is cell-based.
Description: as §1

For another data set, the system named is VCaP. The experiment in a line: 72 hr XTT cell viability assay, VCaP. The data set is classed as cell-based. The settings on record: Homo sapiens, read-out: IC50 cell growth inhibition.
Description: as §1

A further data set relates to 22RV1. The experiment in a line: 72 hr XTT cell viability assay, 22RV1. The data set is classed as cell-based. Conditions: Homo sapiens; 22RV1, 72 hr XTT; read-out: IC50 cell growth inhibition.
Description: as §1

Another data set concerns MIA-PACA2 cells. The experiment in a line: MTS cell proliferation assay (CellTiter 96 AQueous One Solution), 96 hr. The settings on record: Homo sapiens, MIA PaCa-2, 96 hr MTS assay. The format is cell-based. The source says: The CellTiter 96® AQueous One Solution Cell Proliferation Assay ([…]) is a colorimetric method for determining the number of viable cells in proliferation or cytotoxicity assays. The CellTiter 96® AQueous One Solution Reagent contains a novel tetrazolium compound [3-(4,5-dimethylthiazol-2-yl)-5-(3-carboxymethoxyphenyl)-2-(4-sulfophenyl)-2H-tetrazolium, inner salt; MTS] and an electron coupling reagent (phenazine ethosulfate; PES). PES has enhanced chemical stability, which allows it to be combined with MTS to form a stable solution. The MTS tetrazolium compound (Owen's reagent) is bioreduced by cells into a colored formazan product that is soluble in tissue culture medium. Assays are performed by adding a small amount of the CellTiter 96@ AQueous One Solution Reagent directly to culture wells, incubating for 1-4 hours and then recording the absorbance at 490 nm with a 96-well plate reader. The quantity of formazan product as measured by absorbance at 490 nm is directly proportional to the number of living cells in culture. The kit was used as per the manufacturers' instructions. After 96-hour incubation with each example compound in MIA-PACA2 cells, the cell proliferation of each sample was measured using the MTS Cell Titre 96 Aqueous One Solution Cell Proliferation Assay (Promega Ltd). The percentage of inhibition was calculated against the mean of the DMSO treated controls samples.

By solubility is commonly meant the dissolved amount per volume that the medium holds. By fraction unbound is commonly meant free concentration divided by total concentration. What is called IC50 is the point on the concentration scale where inhibition reaches its midpoint. Turning to `O=C1c2ccc3c4c(c(NCCN5CCCC5)cc(c24)C(=O)N1CCCN1CCOCC1)C(=O)N(CCCN1CCOCC1)C3=O` [Example C1, reference compound], the solubility in data set [1] was greater than 5000 µg/mL. Moreover, the “Stability in saline at 0° C.” value in [2] is listed as greater than 1 month. The half-life in data set [3] is greater than 8 h. In data set [4], this compound gave a fraction unbound of 0.65. In data set [5], the blood plasma ratio was found to be 10.9. The “FRET ΔTm, ° C. with GQ” value with GQ was 17.6 °C. Also, the half-inhibitory concentration (IC50) in the data set with MIA-PACA2 was 13 nM; in the data set with PANC-1 it was 15.6 nM; in the data set on CAPAN-1, 26.5 nM; with BX-PC3, 15.5 nM; with MIA-PACA2^gemR, 14.9 nM; in the data set on PC-3, 94 nM. The half-maximal inhibitory concentration (IC50) turned out to be 113 nM in the data set on DU145, 394 nM in the data set on LNCaP, 135 nM with VCaP and 90 nM in the data set on 22RV1. For the same compound, the “tumours not showing complete regression, versus vehicle control” value in the data set on MIA-PACA2 tumours is given as “reductions in tumour growth, leading to consistently smaller volumes than in the vehicle control groups”.

For the compound `O=C1c2cc(-c3ccc(CN4CCCC4)cc3)c3c4c(cc(NCCN5CCCC5)c(c24)C(=O)N1CCCN1CCOCC1)C(=O)N(CCCN1CCOCC1)C3=O` [Example 1, 2,7-bis(3-morpholinopropyl)-4-((2-(pyrrolidin-1-yl)ethyl)amino)-9-(4-(pyrrolidin-1-ylmethyl)phenyl)benzo[lmn][3,8]phenanthroline-1,3,6,8(2H,7H)-tetraone], the IC50 in the data set on MIA-PACA2 cells (read-out: ABS IC50) was 0.056 nM; in the data set with MIA-PACA2 cells (read-out: Rel IC50) it was 0.035 nM; in the data set with MIA-PACA2, 1.3 nM; with PANC-1, 1.4 nM; with CAPAN-1, 5.9 nM; in the data set on BX-PC3 it was 2.6 nM. The half-inhibitory concentration (IC50) with MIA-PACA2^gemR stood at 3.8 nM; with PC-3 it was 3 nM; in the data set on DU145, 32 nM; in the data set on LNCaP, 247 nM; in the data set with VCaP it was 68 nM; with 22RV1 it was 90 nM. Moreover, the “Stability in saline at 0° C.” value in data set [2] is listed as greater than 1 month. In [3], the half-life turned out to be 4.47 h. Besides, in [4], the fraction unbound is 0.339. Besides, in [5], the blood plasma ratio worked out at 6.1. The “FRET ΔTm, ° C. with GQ” value with GQ came out at 23.1 °C. The “greater cellular potency relative to C1” value with MIA-PACA2 (compared with C1) was determined as 10 fold. For the same compound, the “complete regression in tumour volume at the end of the dosing period” value in the data set on MIA-PACA2 tumours (1× weekly) and with MIA-PACA2 tumours (2× weekly) was “⅝” throughout. The “tumour regrowth in complete regression cohorts” value in the data set on MIA-PACA2 tumours (28 days post-dosing) is reported as “no regrowth seen after 28 days post-dosing”. The “tumour growth and tumour size” value in the data set on MIA-PACA2 tumours (MIA-PACA2 xenograft, 28 days IV administration, followed by 28 days measurement) was “inhibited the growth of the pancreatic tumour and reduced the tumour's size considerably more than the comparative compound C1 or the known anti-cancer drug, Gemcitabine”. Also, the tolerability result with MIA-PACA2 tumours (compound and dosing schedules, IV, mice) was “well-tolerated showing no sign of adverse effects”. Also, the “tumours not showing complete regression, versus vehicle control” value with MIA-PACA2 tumours was “reductions in tumour growth, leading to consistently smaller volumes than in the vehicle control groups”.

For the compound `O=C1c2cc(-c3ccc(CN4CCCCC4)cc3)c3c4c(cc(NCCN5CCCC5)c(c24)C(=O)N1CCCN1CCOCC1)C(=O)N(CCCN1CCOCC1)C3=O` [Example 4, 2,7-bis(3-morpholinopropyl)-4-(4-(piperidin-1-ylmethyl)phenyl)-9-((2-(pyrrolidin-1-yl)ethyl)amino)benzo[lmn][3,8]phenanthroline-1,3,6,8(2H,7H)-tetraone], the IC50 was found to be 0.175 nM with MIA-PACA2 cells (read-out: ABS IC50) and 0.132 nM in the data set with MIA-PACA2 cells (read-out: Rel IC50).

As for `C[C@]12CC[C@H](O)CC1=CC[C@@H]1[C@@H]2CC[C@]2(C)C(c3cccnc3)=CC[C@@H]12` [Abiraterone], the 50% inhibitory concentration (IC50) with PC-3 was found to be 4820 nM; with LNCaP, 3860 nM.

For the compound `O=C1c2cc(-c3ccc(CNC4CCCC4)cc3)c3c4c(cc(NCCN5CCCC5)c(c24)C(=O)N1CCCN1CCOCC1)C(=O)N(CCCN1CCOCC1)C3=O` [Example 6, 4-(4-((cyclopentylamino)methyl)phenyl)-2,7-bis(3-morpholinopropyl)-9-((2-(pyrrolidin-1-yl)ethyl)amino)benzo[lmn][3,8]phenanthroline-1,3,6,8(2H,7H)-tetraone], the IC50 in the data set with MIA-PACA2 cells (read-out: ABS IC50) was 0.102 nM; with MIA-PACA2 cells (read-out: Rel IC50), 0.099 nM.

On to `O=C1c2cc(-c3ccc(CN4CCCCCC4)cc3)c3c4c(cc(NCCN5CCCC5)c(c24)C(=O)N1CCCN1CCOCC1)C(=O)N(CCCN1CCOCC1)C3=O` [Example 7, 4-(4-(azepan-1-ylmethyl)phenyl)-2,7-bis(3-morpholinopropyl)-9-((2-(pyrrolidin-1-yl)ethyl)amino)benzo[lmn][3,8]phenanthroline-1,3,6,8(2H,7H)-tetraone], for which the results for the half-inhibitory concentration (IC50) with MIA-PACA2 cells (read-out: ABS IC50) and in the data set with MIA-PACA2 cells (read-out: Rel IC50) were 0.182 nM and 0.117 nM, respectively.

Take `O=C1c2cc(-c3cccc(CN4CCCC4)c3)c3c4c(cc(NCCN5CCCC5)c(c24)C(=O)N1CCCN1CCOCC1)C(=O)N(CCCN1CCOCC1)C3=O` [Example 3, 2,7-bis(3-morpholinopropyl)-4-((2-(pyrrolidin-1-yl)ethyl)amino)-9-(3-(pyrrolidin-1-ylmethyl)phenyl)benzo[lmn][3,8]phenanthroline-1,3,6,8(2H,7H)-tetraone]: the IC50 in the data set on MIA-PACA2 cells (read-out: ABS IC50) stood at 0.284 nM; in the data set with MIA-PACA2 cells (read-out: Rel IC50) it was 0.282 nM.

With `CCN(CC)Cc1ccc(-c2cc3c4c(c(NCCN5CCCC5)cc5c4c2C(=O)N(CCCN2CCOCC2)C5=O)C(=O)N(CCCN2CCOCC2)C3=O)cc1` [Example 5, 4-(4-((diethylamino)methyl)phenyl)-2,7-bis(3-morpholinopropyl)-9-((2-(pyrrolidin-1-yl)ethyl)amino)benzo[lmn][3,8]phenanthroline-1,3,6,8(2H,7H)-tetraone], the half-inhibitory concentration (IC50) was found to be 0.18 nM in the data set with MIA-PACA2 cells (read-out: ABS IC50) and 0.239 nM with MIA-PACA2 cells (read-out: Rel IC50).

With `CN1CCN(Cc2ccc(-c3cc4c5c(c(NCCN6CCCC6)cc6c5c3C(=O)N(CCCN3CCOCC3)C6=O)C(=O)N(CCCN3CCOCC3)C4=O)cc2)CC1` [Example 8], the IC50 in the data set on MIA-PACA2 cells (read-out: ABS IC50) stood at 0.277 nM; in the data set with MIA-PACA2 cells (read-out: Rel IC50), 0.174 nM.

Take `O=C1c2cc(-c3ccc(CN4CCOCC4)cc3)c3c4c(cc(NCCN5CCCC5)c(c24)C(=O)N1CCCN1CCOCC1)C(=O)N(CCCN1CCOCC1)C3=O` [Example 2, 4-(4-(morpholinomethyl)phenyl)-2,7-bis(3-morpholinopropyl)-9-((2-(pyrrolidin-1-yl)ethyl)amino)benzo[lmn][3,8]phenanthroline-1,3,6,8(2H,7H)-tetraone]: the concentration for half-maximal inhibition (IC50) in the data set on MIA-PACA2 cells (read-out: ABS IC50) turned out to be 0.292 nM; with MIA-PACA2 cells (read-out: Rel IC50), 0.188 nM.
